Paper PMC5343874, “High Specific Selectivity and Membrane-Active Mechanism of Synthetic Cationic Hybrid Antimicrobial Peptides Based on the Peptide FV7” (International Journal of Molecular Sciences, 2017)
No end group written: not given here.

How the values were obtained:
[1] = system: E. coli UB1005 inner membrane; assay: Inner membrane permeability (ONPG hydrolysis); format: cell-based, Escherichia coli; settings: 1× MIC, absorbance 420 nm, 0–30 min
Experimental: The inner membrane permeability activity against E. coli bacteria was determined by the uptake of ONPG. E. coli UB 1005 cells were cultured to mid-log phase in MHB medium containing 2% lactose at 37 °C, and harvested by centrifugation at 3000× g for 5 min. After washing twice, the cells were diluted to an OD600 of 0.05 with buffer (10 mM PBS, pH 7.4) containing 1.5 mM ONPG. […] The value of OD reflected the ONPG flowing into the cells was measured at 420 nm from 0 to 30 min every two min.

[2] = system: E. coli ATCC 25922; assay: Salt and heat sensitivity (MIC); format: cell-based, Escherichia coli; design: key to MIC, Control / MIC, NaCl / MIC, KCl / MIC, NH4Cl / MIC, MgCl2 / MIC, ZnCl2 / MIC, FeCl3 / MIC, CaCl2 / MIC, Mix: MIC in µM (peptide serial dilutions 0.5–128 µM); MIC, Heat (100 °C): unit not given beside the values; settings: for MIC, MgCl2: 1 mM MgCl2; for MIC, CaCl2: 2.5 mM CaCl2; for MIC, FeCl3: 4 mM FeCl3; for MIC, KCl: 4.5 mM KCl; for MIC, NH4Cl: 6 mM NH4Cl; for MIC, ZnCl2: 8 mM ZnCl2; for MIC, NaCl: 150 mM NaCl; for MIC, Control: absence of physiological salts; for MIC, Mix: mixture medium with all salts in physiological concentrations; for MIC, Heat (100 °C): peptide incubated at 100 °C for 1 h
Experimental: (§1) Minimum inhibitory concentration (MIC) was determined using the modified standard microtiter dilution method as described previously. The bacteria were incubated overnight at 37 °C, […] at 220 rpm and transferred to new nutrient broth (MHB) until the logarithmic phase of growth. The bacteria were then diluted into 10^5 colony forming units (10^5 CFU/mL) in MHB. The peptides were dissolved and diluted in 0.01% acetic acid and 0.2% bovine serum albumin (BSA). Briefly, serial diluted (0.5–128 µM) peptides were added to sterile 96-well plates in a 50-μL volume of bacteria in MHB mixed with 50 µL. […] The results are expressed as an average of the MICs at least three times.
(§2) The incubation to test for thermal stability occurred at 100 °C for 1 h. After these treatments, the procedures were the same as described above for the MIC assay.

[3] = system: S. aureus ATCC 29213; assay: Salt and heat sensitivity (MIC); format: cell-based, Staphylococcus aureus; design: key to MIC, FeCl3 / MIC, Mix / MIC, Control / MIC, NaCl / MIC, KCl / MIC, NH4Cl / MIC, MgCl2 / MIC, ZnCl2 / MIC, CaCl2: MIC in µM (peptide serial dilutions 0.5–128 µM); MIC, Heat (100 °C): unit not given beside the values; settings: for MIC, FeCl3: 4 mM FeCl3; for MIC, Mix: mixture medium with all salts in physiological concentrations; for MIC, Heat (100 °C): peptide incubated at 100 °C for 1 h
Experimental: as §1, §2

[4] = system: human red blood cells (hRBC); assay: Hemolytic activity; format: cell-based; settings: 37 °C; for concentration causing 5% hemolysis (minimal hemolytic concentration, MHC): fresh human erythrocytes in PBS pH 7.4, 1 h, absorbance 570 nm, maximal concentration 128 µM, averages of three independent experiments
Experimental: The hemolytic activity of the peptides was evaluated by measuring the amount of released hemoglobin by the lysis of erythrocytes. The measurement was as previously described. Human red blood cells (hRBC) were obtained from healthy donors by the ethics committee of the Northeast Agricultural University Hospital. The fresh blood cells were washed 2–3 times in PBS (pH 7.4) and centrifuged at 1000× g for 5 min at 4 °C, then resuspended in PBS. Briefly, 50 μL of hRBC solution was incubated with 50 μL of different concentrations of each peptide dissolved in PBS in a 96-well microtiter plate. After incubation for 1 h at 37 °C, the mixtures were centrifuged at 1000× g for 5 min at 4 °C and then the supernatant was transferred to another 96-well microtiter plate. The release of hemoglobin was monitored by measurement of the absorbance at 570 nm using a multimode microplate reader (SpectraMax M5, Molecular Devices, San Francisco, CA, USA). The concentration causing 5% hemolysis was defined as the minimal hemolytic concentration (MHC). The control samples for 0% and 100% hemolysis consisted of hRBC in PBS (Ablank) only and in 0.1% Triton X-100 (Atriton), respectively. The percent hemolysis was calculated according to the following equation: % Hemolysis = [(Asample − Ablank)/(Atriton − Ablank)] × 100

[5] = system: Gram-negative and Gram-positive bacteria; assay: MIC across the bacterial panel; format: cell-based
Experimental: as §1
(§3) E. coli ATCC 25,922, S. typhimurium ATCC 7731, S. typhimurium ATCC 14028, P. aeruginosa ATCC 27853, B. subtilis CMCC 63501, S. aureus ATCC 29213, S. epidermidis ATCC 12228 and E. faecalis ATCC 29212 were obtained from the College of Veterinary Medicine, Northeast Agricultural University (Harbin, China). E. coli UB1005 was kindly provided by Qingsheng Qi (State Key Laboratory of Microbial Technology, Shandong University, Jinan, China). P. Aeruginosa PAO1 was kindly provided by Wengong Yu (State Key Laboratory of School of Medicine and Pharmacy, Ocean University of China, Qingdao, China).

[6] = system: S. faecalis ATCC 29212; format: cell-based
Experimental: as §1, §3

[7] = system: S. typhimurium ATCC 7731; format: cell-based, Salmonella typhimurium
Experimental: as §1, §3

[8] = system: S. typhimurium ATCC 14028; format: cell-based, Salmonella typhimurium
Experimental: as §1, §3

[9] = system: S. aureus ATCC 29213; format: cell-based, Staphylococcus aureus
Experimental: as §1, §3

[10] = system: S. epidermidis ATCC12228; format: cell-based, Staphylococcus epidermidis
Experimental: as §1, §3

[11] = system: B. subtilis CMCC 63501; format: cell-based, Bacillus subtilis
Experimental: as §1, §3

[12] = system: P. aeruginosa ATCC 27853; format: cell-based, Pseudomonas aeruginosa
Experimental: as §1, §3

[13] = system: P. aeruginosa PAO1; format: cell-based, Pseudomonas aeruginosa
Experimental: as §1, §3

[14] = system: E. coli ATCC 25922; format: cell-based, Escherichia coli
Experimental: as §1, §3

[15] = system: E. coli UB 1005; format: cell-based, Escherichia coli
Experimental: as §1, §3

## CC[C@H](C)[C@H](NC(=O)CN)C(=O)NCC(=O)N[C@@H](C)C(=O)N[C@H](C(=O)N[C@@H](CC(C)C)C(=O)N[C@@H](CCCCN)C(=O)N[C@H](C(=O)N[C@@H](CC(C)C)C(=O)N[C@H](C(=O)N[C@H](C(=O)NCC(=O)N[C@@H](CC(C)C)C(=O)N1CCC[C@H]1C(=O)N[C@@H](C)C(=O)N[C@@H](CC(C)C)C(=O)N[C@H](C(=O)N[C@@H](CO)C(=O)N[C@@H](Cc1c[nH]c2ccccc12)C(=O)N[C@H](C(=O)N[C@@H](CCCCN)C(=O)N[C@@H](CCCNC(=N)N)C(=O)N[C@@H](CCCCN)C(=O)N[C@@H](CCCNC(=N)N)C(=O)N[C@@H](CCC(N)=O)C(=O)N[C@@H](CCC(N)=O)C(N)=O)[C@@H](C)CC)[C@@H](C)CC)[C@@H](C)O)[C@@H](C)O)C(C)C)C(C)C [ME26, melittin]
[1]
  inner membrane permeability (ONPG hydrolysis, in words): highest ability for inner membrane permeability
[2]
  MIC, MgCl2: 4
  MIC, CaCl2: 2
  MIC, FeCl3: 2
  MIC, KCl: 2
  MIC, NH4Cl: 2
  MIC, ZnCl2: 4
  MIC, NaCl: 4
  MIC, Control: 2
  MIC, Mix: 4
  MIC, Heat (100 °C): 2
[3]; 1 mM MgCl2
  MIC, MgCl2: 2
[3]; 2.5 mM CaCl2
  MIC, CaCl2: 4
[3]
  MIC, FeCl3: 2
  MIC, Mix: 4
  MIC, Heat (100 °C): 8
[3]; 4.5 mM KCl
  MIC, KCl: 4
[3]; 6 mM NH4Cl
  MIC, NH4Cl: 2
[3]; 8 mM ZnCl2
  MIC, ZnCl2: 2
[3]; 150 mM NaCl
  MIC, NaCl: 4
[3]; absence of physiological salts
  MIC, Control: 8
[4]; human erythrocytes, 1 h
  concentration giving complete hemolysis: greater than 4 µM

## AKKFGKAFVGEIM-NH2 [MA]
[5]
  minimum inhibitory concentration: greater than 64 μM
[6]
  MIC: >64 µM
[7]
  MIC: >64 µM
[8]
  MIC: >64 µM
[9]
  MIC: >64 µM
[10]
  MIC: >64 µM
[11]
  MIC: >64 µM
[12]
  MIC: >64 µM
[13]
  MIC: >64 µM
[14]
  MIC: 32 µM
[15]
  MIC: >64 µM

## FKRIVQRIKDFLR-NH2 [LL]
[6]
  MIC: 32 µM
[7]
  MIC: 16 µM
[8]
  MIC: 32 µM
[9]
  MIC: 16 µM
[10]
  MIC: 8 µM
[11]
  MIC: 16 µM
[12]
  MIC: 8 µM
[13]
  MIC: 16 µM
[14]
  MIC: 16 µM
[15]
  MIC: 16 µM

## FRIRVRV-NH2 [FV7]
[6]
  MIC: 32 µM
[7]
  MIC: 32 µM
[8]
  MIC: 16 µM
[9]
  MIC: 64 µM
[4]; at 128 µM, human erythrocytes, 1 h
  hemolysis: approximately 15%
[4]
  concentration causing 5% hemolysis (minimal hemolytic concentration, MHC): 4 µM
[10]
  MIC: 32 µM
[11]
  MIC: 16 µM
[12]
  MIC: 16 µM
[13]
  MIC: 32 µM
[14]
  MIC: 16 µM
[15]
  MIC: 32 µM

## FRIRVRVAKKFGKAFVGEIM-NH2 [FV-MA]
[6]
  MIC: 16 µM
[7]
  MIC: 4 µM
[8]
  MIC: 4 µM
[9]
  MIC: 8 µM
[4]; human erythrocytes, 1 h, up to 128 µM
  hemolytic activity (in words): higher hemolytic activity at each concentration when compared to FV7
[10]
  MIC: 8 µM
[11]
  MIC: 4 µM
[12]
  MIC: 8 µM
[13]
  MIC: 2 µM
[14]
  MIC: 8 µM
[15]
  MIC: 8 µM

## FRIRVRVFKRIVQRIKDFLR-NH2 [FV-LL]
[6]
  MIC: 4 µM
[7]
  MIC: 2 µM
[8]
  MIC: 2 µM
[9]
  MIC: 2 µM
[4]
  concentration causing 5% hemolysis (minimal hemolytic concentration, MHC): > 128 µM
[10]
  MIC: 1 µM
[11]
  MIC: 4 µM
[12]
  MIC: 4 µM
[13]
  MIC: 2 µM
[14]
  MIC: 1 µM
[15]
  MIC: 4 µM

## FRIRVRVKWKLFKKI-NH2 [FV-CE]
[6]
  MIC: 1 µM
[7]
  MIC: 4 µM
[8]
  MIC: 4 µM
[9]
  MIC: 8 µM
[2]
  MIC, MgCl2: 2
  MIC, CaCl2: 2
  MIC, FeCl3: 4
  MIC, KCl: 2
  MIC, NH4Cl: 2
  MIC, ZnCl2: 2
  MIC, NaCl: 2
  MIC, Control: 2
  MIC, Mix: 2
  MIC, Heat (100 °C): 2
[3]
  MIC, FeCl3: 4
  MIC, Mix: 4
  MIC, Heat (100 °C): 4
[4]
  concentration causing 5% hemolysis (minimal hemolytic concentration, MHC): > 128 µM
[10]
  MIC: 0.5 µM
[11]
  MIC: 1 µM
[12]
  MIC: 2 µM
[13]
  MIC: 2 µM
[14]
  MIC: 2 µM
[15]
  MIC: 2 µM

## KWKLFKKI-NH2 [CE]
[5]
  minimum inhibitory concentration: greater than 64 μM
[6]
  MIC: >64 µM
[7]
  MIC: >64 µM
[8]
  MIC: >64 µM
[9]
  MIC: >64 µM
[10]
  MIC: >64 µM
[11]
  MIC: >64 µM
[12]
  MIC: >64 µM
[13]
  MIC: >64 µM
[14]
  MIC: 64 µM
[15]
  MIC: >64 µM
